From paper PMC9369442, “Synthetic Peucedanocoumarin IV Prevents α-Synuclein Neurotoxicity in an Animal Model of Parkinson’s Disease” (International Journal of Molecular Sciences, 2022)

Columns and labels:
recombinant α-synuclein = target: T1, recombinant α-synuclein (Homo sapiens, UniProt P37840); assay: In vitro recombinant α-synuclein aggregation, Western blot; format: biochemical; details: 100 μM, 37 °C, 3 or 5 days
T1 construct: made in house; host or cells: Escherichia coli BL21
Protocol: Figure 2 PCiv prevents α-synuclein aggregation in vitro and in cultured neurons with PFF treatment. (A) Representative Western blots showing the degree of recombinant α-synuclein (αSyn) aggregation in a test tube in the presence or absence of PCiv (100 μM) at the indicated incubation duration (phosphate-buffered saline [PBS], 37 °C for 3 or 5 days). Aggregation of α-synuclein was determined using α-synuclein antibody. (B) Quantification of the relative amount of α-synuclein aggregate in high molecular weight sizes in panel A (n = 3 per group). […] (D) Quantification of pS129-αSyn immunofluorescence signal intensities in MAP2-positive cortical neurons in each experimental group (n = 15 cells from three separate experiments). (E) Cell viability assessment in the indicated experimental groups was monitored by CCK-8 assay (n = 3 per group). The data are expressed as means ± SEMs. * p < 0.05, ** p < 0.01, *** p < 0.001, and **** p < 0.0001, ANOVA test followed by Tukey’s post hoc analysis. […]
(A) Representative Western blots showing the degree of recombinant α-synuclein (αSyn) aggregation in a test tube in the presence or absence of t-Khellatone, PCiii, and PCiv (100 μM) at 0 and 5 days of incubation (phosphate-buffered saline [PBS], 37 °C for 5 days). Aggregation of α-synuclein was determined using α- synuclein antibody. […]

[1] = system: SH-SY5Y cells with Tet-Off conditional expression of β23; assay: Trypan blue exclusion cell viability assay, Tet-Off β23 expression; format: cell-based; details: 1 μM, 24 h
Protocol: Figure 1 Peucedanocoumarin IV (PCiv) inhibits β23 aggregations and cytotoxicity in SH-SY5Y cells. (A) Scheme showing the detailed experimental steps in the organic synthesis of racemic PCiv and racemic PCiii (rac-PCiii, and rac-PCiv). Both PCiii and PCiv used in this study are racemic forms. (B) Trypan blue exclusion cell viability assessment in SH-SY5Y cells with Tet-Off-induced β23 expressions. β23 was expressed for 24 h using the Tet-off system. Further expression of β23 was halted by doxycycline (Dox) treatment with simultaneous treatment of the PCiii, PCiv, or their synthetic intermediate, trans-khellatone (t-khellatone, 1 μM 24 h). Cell viability was assessed 24 h after doxycycline treatment (n = 5 per group). (C) Synthetic PCiv’s protective effect on Tet-Off-expressed β23 toxicity in SH-SY5Y cells compared with peucedanocoumarin III (PCiii) determined by trypan blue exclusion assay. (D) The degradation of β23 monitored by Western blot at 37 h after doxycycline (200 ng/mL) treatment. The representative Western blot image of HA (β23) in SH-SY5Y cells treated with synthetic PCiii, synthetic PCiv (1 μM, 37 h), or DMSO as a vehicle. (E) Quantification of HA (β23) expression in SH-SY5Y cells from the indicated experimental groups in panel D (n = 3 experiments per group). (F) Representative immunofluorescence of steady state HA (β23) expression in SH-SY5Y cells expressing Tet-Off regulatable reporter mCherry and HA-tagged β23. HA-β23 was expressed for 24 h using the Tet-off system. Further expression of β23 was halted by Dox treatment in the presence of PCiii or PCiv (1 μM, 37 h). (G) Quantification of HA (β23) immunofluorescence signal in mCherry positive SH-SY5Y cells in each experimental group (n = 32 cells from three separate experiments per group). The data are expressed as means ± SEMs. * p < 0.05, ** p < 0.01, *** p < 0.001, and **** p < 0.0001, ANOVA test followed by Tukey’s post hoc analysis. Two-way ANOVA was used in panel C.
Human neuroblastoma SH-SY5Y cells (ATCC, Manassas, VA, USA) were grown in complete media containing DMEMs, 10% fetal bovine serum (vol/vol), and antibiotics (penicillin-streptomycin 100 U/mL, Thermo Fisher Scientific, Waltham, MA, USA). The atmospheric condition used to preserve the cells consisted of 5% CO2/95% air at 37 °C and maintained a humidified environment. X-tremeGENE HP transfection reagents (Roche, Basel, Switzerland) were used for transient transfection of DNA constructs (pCMV-tTA, TetP-β23, and pTet-dual2 [5]) following the manufacturer’s instructions.
SH-SY5Y cells were plated in 12-well plates at a density of 0.2 × 10^6 cells per well. Following transient transfection with the indicated constructs and subsequent treatment protocol, the cells were harvested by trypsinization, thereby yielding single-cell suspensions. The cells were washed twice with phosphate-buffered saline (PBS) and resuspended in serum-free DMEM. The resuspended cells were mixed with an equal volume of 0.4% trypan blue (w/v) and incubated for 2 min at room temperature. Live and dead cells were counted using a Countess II Automated Cell Counter (Life Technologies, Carlsbad, CA, USA) for assessing cell viability.

CC1(C)Oc2ccc3ccc(=O)oc3c2C(O)C1O (stereo not drawn) [trans-khellatone, reference compound]
aggregation of recombinant α-synuclein into high molecular weight species (recombinant α-synuclein): failed to prevent
effect on β23-induced cytotoxicity [1]: no effect
